According to article PMC11931445, “A Novel Compound QO‐83 Alleviates Acute and Chronic Epileptic Seizures in Rodents by Modulating KV7 Channel Activity” (CNS Neuroscience & Therapeutics, 2025):

How the values were obtained:
[1] = system: PTZ-induced seizures; assay: Metrazol maximal seizure (MMS) model; format: in vivo, C57BL/6J mice; details: 15 mg/kg
Method: For this experimental phase, male C57BL/6J mice weighing between 18 g and 25 g were randomly assigned to four groups based on their body weight. The QO‐83 group was divided into two subgroups, one receiving a dosage of 1 mg/kg (i.p.) and the other receiving a dosage of 3 mg/kg (i.p.).
PTZ (85 mg/kg, 0.1 mL per 10 g) was administered subcutaneously at the nape of the neck. Subsequently, mice were promptly placed in individual transparent observation chambers under quiet conditions. A stopwatch was utilized to measure seizure latency, defined as the time from PTZ injection to the onset of a generalized systemic clonic seizure and loss of the […]. The number of animals experiencing seizures was manually recorded.

[2] = system: PTZ kindling seizures; assay: Chronic PTZ-induced epileptic kindling model; format: in vivo, Wistar Institute rats
Method: In the preparation of the chronic PTZ‐induced epileptic kindling model, male Wistar Institute rats weighing between 180 and 250 g were utilized. […] During the modeling period, all groups received daily intraperitoneal injections of 0.2 mL/100 g between 9:00 and 15:00.
Seizure severity was assessed using the Racine scale.

[3] = molecular target: KV7.3 (Homo sapiens, UniProt O43525); assay: Manual patch clamp, KV7 currents; format: cell-based
Method: (§1) Pipettes (1–6 MΩ) were filled with a solution of KCl (145 mM), MgCl2 (1 mM), HEPES (10 mM), and EDTA (5 mM). The pH was adjusted to 7.2 with NaOH. Electrophysiological measurements were obtained using an AXON Multiclamp 700 B patch‐clamp amplifier. The bath solution contained NaCl (144 mM), KCl (5 mM), MgCl2 (1 mM), CaCl2 (2 mM), and D‐glucose (10 mM), with the pH adjusted to 7.4 using NaOH. The protocol involved an increase in voltage from −120 mV to 40 mV in increments of 10 mV to evoke a series of KV7 currents (1000 ms per pulse) in the bath solution. For details on cell culture, please see Appendix S1 2.2.1.
(§2) Statistical differences between multiple groups (mean ± SEM) were compared using one‐ or two‐way ANOVA. Electrophysiological data were analyzed using SPSS version 21 and OriginPro (version 9.1.0). P Peak inward currents obtained from activation protocols were calculated using the following equation: G = I/(Vm‐EK), where G is conductance, I is peak inward current, Vm is instantaneous membrane potential, and EK is equilibrium potential for the […] channel. Conductance data were normalized using maximum conductance and further fitted to the Boltzmann equation: G=Gmax+Gmin−Gmax/1+expVm−V1/2/k , where G is conductance, V1/2 is midpoint of activation, and k is slope factor. The “Spectrum” module of LabChart was used for data analysis of EEG signals, including the calculation of power density and averaging power spectral density (PSD).

[4] = system: electroshock seizures; assay: Maximal electroshock seizure (MES) model; format: in vivo, Kunming mice; details: 15 mg/kg i.p.
[5] = Colour stability of drug solutions; format: physicochemical; details: 10 μM in saline, 37°C, 30 days
Method: Both drugs were dissolved in saline at a concentration of 10 μM and maintained at a constant temperature of 37°C for 30 days.

[6] = system: PNC-induced seizures; assay: Penicillin (PNC) induced acute epilepsy model; format: in vivo, SD rats; details: 40 mg/kg i.g.
Method: In the penicillin (PNC) induced acute epilepsy model study, male SD rats weighing between 180 g and 250 g were utilized. […] Each group consisted of 10 rats.
PNC was administered intraperitoneally at a dose of 8 million U/kg to induce epileptic seizures. […] In the Compound QO‐83 treatment groups, rats were orally administered the designated doses of Compound QO‐83, followed by an intraperitoneal injection of PNC after a 20‐min interval. The PNC model group received an oral gavage of a 0.5% CMC‐Na solution, followed by an intraperitoneal injection of PNC after a 20‐min interval. […] Seizure behaviors, including convulsions, limb jerks, and loss of postural control, were observed and analyzed in all groups.

[7] = molecular target: T1, KV7.4 (Homo sapiens, UniProt P56696); assay: Manual patch clamp, KV7 currents; format: cell-based
T1 construct: expressed in transfected cells
Method: as §1, §2
(§3) Stable Chinese Hamster Ovary (CHO) cell lines expressing specific Kv7 channel subtypes, including KV7.2 and KV7.2/7.3, were cultured in Minimum Essential Medium (MEM) supplemented with 10% fetal calf serum, 1× nonessential amino acids, […], and […] hygromycin B. Concurrently, KV7.4 and KV7.5 channels were stably expressed in Human Embryonic Kidney 293A (HEK293A) cell lines and nurtured in Dulbecco's Modified Eagle Medium (DMEM) high glucose medium supplemented with 10% fetal bovine serum (FBS), […], and […] hygromycin B.

[8] = molecular target: T2, KV7.5 (Homo sapiens, UniProt Q9NR82); assay: Manual patch clamp, KV7 currents; format: cell-based
T2 construct: expressed in transfected cells
Method: as §1, §2, §3

[9] = molecular target: T3, KV7.2/7.3 (Homo sapiens, UniProt O43525+O43526); assay: Manual patch clamp, KV7 currents; format: cell-based
T3 construct: expressed in transfected cells
Method: as §1, §2, §3

[10] = molecular target: T4, KV7.2 (Homo sapiens, UniProt O43526); assay: Manual patch clamp, KV7 currents; format: cell-based; details: KV7.2
T4 construct: expressed in transfected cells
Method: as §1, §2, §3

With `CCOC(=O)Nc1ccc(NCc2ccc(F)cc2)cc1N` [RTG, retigabine] the seizure protection rate [1] was 40%, the “effect on latency period” value ([2]; 10 mg/kg) was “significantly prolong the latency period” and the seizure grade ([2]; 10 mg/kg i.p. daily, 30th day, model 4.68 ± 0.62) was 1.75 ± 0.31. For the same compound, the “activation curve V1/2” value ([3]; 10.00 μM) was -55.64 ± 1.31 mV, the “Activation τ (10 mV)” value ([3]; 10 μM, Mean ± SE) was 246.33 ± 21.28 ms and the “Deactivation τ (-120 mV)” value ([3]; 10 μM, Mean ± SE) was 153.33 ± 48.97 ms. The electroshock protection rate [4] was 90%, the “color change of drug solution” value [5] was “developed a distinct purple coloration” and the “effect on seizure latency” value [6] was “significantly increased seizure latency”. The seizure grade [6] was 2.66 ± 0.33, the “activation curve V1/2” value ([7]; 10.00 μM) was -40.62 ± 2.00 mV and the “Activation τ (10 mV)” value ([7]; 10 μM, Mean ± SE) was 242.74 ± 34.66 ms. For the same compound, the “Deactivation τ (-120 mV)” value ([7]; 10 μM, Mean ± SE) was 99.62 ± 18.87 ms, the “activation curve V1/2” value ([8]; 10.00 μM) was -56.77 ± 1.07 mV and the “Activation τ (10 mV)” value ([8]; 10 μM, Mean ± SE) was 170.33 ± 16.42 ms. The “Deactivation τ (-120 mV)” value ([8]; 10 μM, Mean ± SE) was 96.4 ± 14.98 ms, the “activation curve V1/2” value ([9]; 10.00 μM) was -37.76 ± 2.34 mV and the “Activation τ (10 mV)” value ([9]; 10 μM, Mean ± SE) was 205.66 ± 37.03 ms. For the same compound, the “Deactivation τ (-120 mV)” value ([9]; 10 μM, Mean ± SE) was 154.46 ± 45.81 ms, the “activation curve V1/2” value ([10]; 10.00 μM) was -32.23 ± 1.89 mV and the “Activation τ (10 mV)” value ([10]; 10 μM, Mean ± SE) was 259.60 ± 69.06 ms. The “Deactivation τ (-120 mV)” value ([10]; 10 μM, Mean ± SE) was 102.04 ± 18.32 ms.
